The record followed here is patent US10219516B2, “Molecules having pesticidal utility, and intermediates, compositions, and processes, related thereto” (priority 2015, dated 2019).

Where a name gives a salt, the structure may show the parent alone. Read-outs that look alike come from different tables or passages of the source.

What all share (format): in vivo
Experiment [1] relates to Yellow Fever Mosquito (Aedes aegypti, AEDSAE). The experiment can be described thus: Bioassay on Yellow Fever Mosquito (YFM), 96-well plate larval assay. Conditions: for YFM rating: Yellow Fever Mosquito, 96-well plate larval assay; for YFM (Biological Results, rating): Species YFM (Yellow Fever Mosquito). In outline:
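Compound stocks at 4000 ppm in DMSO were diluted with 90:10 water/acetone, and 15 μL aliquots were dispensed into six replicate plates. About 1-day-old larvae in liver-powder water were added per well. Plates were covered and held at room temperature for 3 days before each well was scored for mortality.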

For experiment [2], the system named is Cabbage Looper (Trichoplusia ni, TRIPNI). The experiment can be described thus: Bioassay on Cabbage Looper (CL), 128-well diet tray assay. Conditions: Trichoplusia ni. In outline:
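Second-instar larvae, one to five per well, were placed on artificial diet surface-treated with 50 μg/cm^2 test molecule applied in 90:10 acetone-water and dried, eight wells per molecule. Trays were covered, vented and held at 25° C., 14:10 light-dark for five to seven days; percent mortality per well was averaged.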

The subject of experiment [3] is Beet Armyworm (Spodoptera exigua, LAPHEG). The experiment can be described thus: Bioassay on Beet Armyworm (BAW), 128-well diet tray assay. Summed up: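 Diet tray, 8 wells/compound; 50 μg/cm^2 applied to diet surface (90:10 acetone-water), dried. 1–5 L2 larvae/well; 25° C., 14:10 L:D, 5–7 d. Read-out: % mortality, mean of 8 wells.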
Setting [4] is: Cabbage Looper, 128-well diet tray assay, read-out: CL rating.
Setting [5] is: Beet Armyworm, 128-well diet tray assay, read-out: BAW rating.
Where [6] appears, read: Species CL (Cabbage Looper), read-out: CL (Biological Results, rating).
Setting [7] is: Species BAW (Beet Armyworm), read-out: BAW (Biological Results, rating).

Turning to `Nc1cc(F)c(NC(=O)c2cc(NC(=O)[C@H]3[C@H](c4ccc(Cl)c(Cl)c4)C3(Cl)Cl)ccc2Cl)cc1F` [F569, trans-N-(4-Amino-2,5-difluorophenyl)-2-chloro-5-((1R,3R)-2,2-dichloro-3-(3,4-dichlorophenyl)cyclopropane-1-carboxamido)benzamide], the YFM rating result in experiment [1] is listed as “A (80-100)”. Moreover, the pest or weed control at 50 µg/cm2 in experiment [2] (setting [4]) and in experiment [3] (setting [5]) was 50 to 100% throughout.
Turning to `Nc1ccc(NC(=O)c2cc(NC(=O)[C@H]3[C@H](c4cc(Cl)cc(Cl)c4)C3(Cl)Cl)ccc2Cl)c(F)c1` (relative stereo) [F175, trans-N-(4-amino-2-fluorophenyl)-2-chloro-5-(2,2-dichloro-3-(3,5-dichlorophenyl)cyclopropane-1-carboxamido)benzamide], the “YFM (Biological Results, rating)” value in experiment [1] is “A (80-100)”. For the same molecule, the pest or weed control at 50 µg/cm2 in experiment [2] (setting [6]) and in experiment [3] (setting [7]) was 50 to 100% each time.
With `CNc1ccc(NC(=O)c2cc(NC(=O)[C@H]3[C@H](c4cc(Cl)cc(Cl)c4)C3(Cl)Cl)ccc2Cl)cc1` (relative stereo) [PF22, trans-2-Chloro-5-(2,2-dichloro-3-(3,5-dichlorophenyl)cyclopropane-1-carboxamido)-N-(4-(methylamino)phenyl)benzamide hydrochloride], in experiment [1], the YFM rating result was “A (80-100)”. Besides, the pest or weed control at 50 µg/cm2 in experiment [2] (setting [4]) and in experiment [3] (setting [5]) was 50 to 100% each time.
Turning to `Nc1cc(F)cc(NC(=O)c2cc(NC(=O)[C@H]3[C@H](c4cc(Cl)cc(Cl)c4)C3(Cl)Cl)ccc2Cl)c1` [F419, N-(3-Amino-5-fluorophenyl)-2-chloro-5-((1R,3R)-2,2-dichloro-3-(3,5-dichlorophenyl)cyclopropane-1-carboxamido)benzamide], in experiment [1], the YFM rating entry is recorded as “B (More than 0-Less than 80)”. Also, the pest or weed control at 50 µg/cm2 in experiment [2] (setting [4]) and in experiment [3] (setting [5]) was 50 to 100% in each case.
As for `CNc1ccc(NC(=O)c2cc(NC(=O)[C@H]3[C@H](c4cc(Cl)cc(Cl)c4)C3(Cl)Cl)cc(Cl)c2Cl)cc1` (relative stereo) [F249, trans-2,3-Dichloro-5-(2,2-dichloro-3-(3,5-dichlorophenyl)cyclopropane-1-carboxamido)-N-(4-(methylamino)phenyl)benzamide], the “YFM (Biological Results, rating)” value in experiment [1] is “A (80-100)”. Besides, the pest or weed control at 50 µg/cm2 in experiment [2] (setting [6]) and in experiment [3] (setting [7]) was 50 to 100% each time.
Take `O=C(Nc1ccc(F)cc1)c1cc(NC(=O)[C@@H]2[C@@H](c3ccc(Cl)c(Cl)c3)C2(Cl)Cl)ccc1Cl` [F208, 2-Chloro-5-((1S,3S)-2,2-dichloro-3-(3,4-dichlorophenyl)cyclopropane-1-carboxamido)-N-(4-fluorophenyl)benzamide]: the “YFM (Biological Results, rating)” value in experiment [1] is given as “A (80-100)”. The pest or weed control at 50 µg/cm2 in experiment [2] (setting [6]) and in experiment [3] (setting [7]) was 50 to 100% throughout.
As to `O=C(Nc1ccc(F)cc1F)c1cc(NC(=O)C2C(c3cc(F)c(F)c(F)c3)C2(Cl)Cl)ccc1Cl` (stereo not drawn) [F581, 2-Chloro-5-trans-(2,2-dichloro-3-(3,4,5-trifluorophenyl)cyclopropane-1-carboxamido)-N-(2,4-difluorophenyl)benzamide], in experiment [1], the YFM rating result is listed as “A (80-100)”. Besides, the pest or weed control at 50 µg/cm2 in experiment [2] (setting [4]) and in experiment [3] (setting [5]) was 50 to 100% each time.
As to `Nc1c(F)ccc(NC(=O)c2cc(NC(=O)[C@H]3[C@H](c4cccc(C(F)(F)F)c4)C3(Cl)Cl)ccc2Cl)c1F` (relative stereo) [F341, trans-N-(3-Amino-2,4-difluorophenyl)-2-chloro-5-(2,2-dichloro-3-(3-(trifluoromethyl)phenyl)cyclopropane-1-carboxamido)benzamide], the “YFM (Biological Results, rating)” value in experiment [1] is reported as “A (80-100)”. The pest or weed control at 50 µg/cm2 in experiment [2] (setting [6]) and in experiment [3] (setting [7]) was 50 to 100% each time.
With `C=Cc1cc([C@H]2[C@H](C(=O)Nc3ccc(Cl)c(C(=O)Nc4ccc(F)cc4F)c3)C2(Cl)Cl)ccc1Cl` (relative stereo) [F351, 2-Chloro-5-(trans-2,2-dichloro-3-(4-chloro-3-vinylphenyl)cyclopropane-1-carboxamido)-N-(2,4-difluorophenyl)benzamide], the “YFM (Biological Results, rating)” value in experiment [1] is “A (80-100)”. Besides, the pest or weed control at 50 µg/cm2 in experiment [2] (setting [6]) and in experiment [3] (setting [7]) was 50 to 100% throughout.
Consider `C=Cc1ccc([C@H]2[C@H](C(=O)Nc3ccc(Cl)c(C(=O)Nc4ccc(F)cc4)c3)C2(Cl)Cl)cc1Cl` (relative stereo) [F289, 2-chloro-5-(trans-2,2-dichloro-3-(3-chloro-4-vinylphenyl)cyclopropane-1-carboxamido)-N-(4-fluorophenyl)benzamide], for which the “YFM (Biological Results, rating)” value in experiment [1] is listed as “A (80-100)”. The pest or weed control at 50 µg/cm2 in experiment [2] (setting [6]) and in experiment [3] (setting [7]) was 50 to 100% throughout.
`Cc1cc(NC(=O)c2cc(NC(=O)[C@H]3[C@H](c4cc(Cl)cc(Cl)c4)C3(Cl)Cl)ccc2Cl)ccc1F` (relative stereo) [PF44, trans-2-Chloro-5-(2,2-dichloro-3-(3,5-dichlorophenyl)cyclopropane-1-carboxamido)-N-(4-fluoro-3-methylphenyl)benzamide]: the YFM rating entry in experiment [1] was “A (80-100)”. Also, the pest or weed control at 50 µg/cm2 in experiment [2] (setting [4]) and in experiment [3] (setting [5]) was 50 to 100% in each case.
Regarding `O=C(Nc1ncc(F)cc1F)c1cc(NC(=O)[C@H]2[C@H](c3ccc(F)c(Cl)c3)C2(Cl)Cl)ccc1Cl` [F316, 2-Chloro-5-((1R,3R)-2,2-dichloro-3-(3-chloro-4-fluorophenyl)cyclopropane-1-carboxamido)-N-(3,5-difluoropyridin-2-yl)benzamide], in experiment [1], the “YFM (Biological Results, rating)” value is reported as “A (80-100)”. Besides, the pest or weed control at 50 µg/cm2 in experiment [2] (setting [6]) and in experiment [3] (setting [7]) was 50 to 100% throughout.
For the molecule `COc1ccc(NC(=O)c2cc(NC(=O)[C@H]3[C@H](c4cc(Cl)cc(Cl)c4)C3(Cl)Cl)ccc2Cl)cc1N` (relative stereo) [F199, trans-N-(3-Amino-4-methoxyphenyl)-2-chloro-5-(2,2-dichloro-3-(3,5-dichlorophenyl)cyclopropane-1-carboxamido)benzamide], in experiment [1], the “YFM (Biological Results, rating)” value is on record as “A (80-100)”. The pest or weed control at 50 µg/cm2 in experiment [2] (setting [6]) and in experiment [3] (setting [7]) was 50 to 100% each time.
As for `O=C(Nc1ccc2sccc2c1)c1cc(NC(=O)[C@H]2[C@H](c3cc(Cl)cc(Cl)c3)C2(Cl)Cl)ccc1Cl` (relative stereo) [F452, trans-N-(Benzo[b]thiophen-5-yl)-2-chloro-5-(2,2-dichloro-3-(3,5-dichlorophenyl)cyclopropane-1-carboxamido)benzamide], the YFM rating result in experiment [1] is “A (80-100)”. The pest or weed control at 50 µg/cm2 in experiment [2] (setting [4]) and in experiment [3] (setting [5]) was 50 to 100% in each case.
As to `O=C(Nc1ccnc(Cl)c1)c1cc(NC(=O)[C@H]2[C@H](c3cc(Cl)cc(Cl)c3)C2(Cl)Cl)ccc1Cl` [F368, 2-Chloro-N-(2-chloropyridin-4-yl)-5-((1R,3R)-2,2-dichloro-3-(3,5-dichlorophenyl)cyclopropane-1-carboxamido)benzamide], in experiment [1], the “YFM (Biological Results, rating)” value is on record as “A (80-100)”. For the same molecule, the pest or weed control at 50 µg/cm2 in experiment [2] (setting [6]) and in experiment [3] (setting [7]) was 50 to 100% in each case.
With `O=C(Nc1ccc(F)cc1)c1cc(NC(=O)[C@H]2[C@H](c3ccc([N+](=O)[O-])cc3)C2(Cl)Cl)ccc1Cl` (relative stereo) [F422, 2-chloro-5-(trans-2,2-dichloro-3-(4-nitrophenyl)cyclopropane-1-carboxamido)-N-(4-fluorophenyl)benzamide], the YFM rating entry in experiment [1] is reported as “A (80-100)”. Further, the pest or weed control at 50 µg/cm2 in experiment [2] (setting [4]) and in experiment [3] (setting [5]) was 50 to 100% in each case.
In the case of `Nc1cncc(NC(=O)c2cc(NC(=O)[C@H]3[C@H](c4ccc(Cl)c(Cl)c4)C3(Cl)Cl)ccc2Cl)c1` [F363, N-(5-Aminopyridin-3-yl)-2-chloro-5-((1R,3R)-2,2-dichloro-3-(3,4-dichlorophenyl)cyclopropane-1-carboxamido)benzamide], the “YFM (Biological Results, rating)” value in experiment [1] is on record as “A (80-100)”. For the same molecule, the pest or weed control at 50 µg/cm2 in experiment [2] (setting [6]) and in experiment [3] (setting [7]) was 50 to 100% throughout.
For `O=C(Nc1ccc(F)cc1F)c1cc(NC(=O)[C@H]2[C@H](c3ccc(F)c(Cl)c3)C2(Cl)Cl)ccc1Cl` (relative stereo) [PF6, trans-2-Chloro-5-(2,2-dichloro-3-(3-chloro-4-fluorophenyl)cyclopropane-1-carboxamido)-N-(2,4-difluorophenyl)benzamide], in experiment [1], the YFM rating result is “A (80-100)”. For the same molecule, the pest or weed control at 50 µg/cm2 in experiment [2] (setting [4]) and in experiment [3] (setting [5]) was 50 to 100% in each case.
Take `O=C(Nc1nnc(Br)s1)c1cc(NC(=O)C2C(c3cc(Cl)cc(Cl)c3)C2(Cl)Cl)ccc1Cl` (stereo not drawn) [PF133, trans-N-(5-bromo-1,3,4-thiadiazol-2-yl-2-chloro-5-(2,2-dichloro-3-(3,5-dichlorophenyl)cyclopropane-1-carboxamido)benzamide]: in experiment [1], the YFM rating entry is on record as “A (80-100)”. Moreover, the pest or weed control at 50 µg/cm2 in experiment [2] (setting [4]) and in experiment [3] (setting [5]) was 50 to 100% in each case.
Take `C=Cc1ccc(NC(=O)c2cc(NC(=O)[C@H]3[C@H](c4cc(Cl)cc(Cl)c4)C3(Cl)Cl)ccc2Cl)cc1` (relative stereo) [PF16, trans-2-Chloro-5-(2,2-dichloro-3-(3,5-dichlorophenyl)cyclopropane-1-carboxamido)-N-(4-vinylphenyl)benzamide]: the YFM rating result in experiment [1] is “A (80-100)”. The pest or weed control at 50 µg/cm2 in experiment [2] (setting [4]) and in experiment [3] (setting [5]) was 50 to 100% each time.
